# pIC50: −log10 of the molar value.
# Target: γ-secretase (Cricetulus griseus, UniProt G3HNF2)
# Experiment: Cell-Based γ-Secretase Assay with ELISA Readout (production of amyloid beta protein Aβ(1-42))
# Conditions: human WT-APP overexpressing CHO cells; Aβ(1-42) ELISA; geometric mean of 2-4 determinations (b: single determination; c: geometric mean of ≧5 determinations)
# Procedure: The ability of compounds to modulate production of amyloid beta protein Aβ(1-42) was determined using human WT-APP overexpressing CHO cells. Cells were plated at 22,000 cells/100 μL well in 96 well tissue culture treated, clear plates (Falcon) in DMEM/F12 based medium and incubated for 24 hours at 37° C. […] Compounds were added in fresh medium to achieve 1% final DMSO. Appropriate vehicle or inhibitor controls were added into control wells individually to obtain minimum or maximum inhibition values, respectively, for the assay signal window before the plates were incubated for ˜24 hours at 37° C. This procedure produces conditioned media in each well which is tested for Aβ(1-42) levels in the ELISA detection step described next. The remaining cell cultures in each well are also tested for cell toxicity as described below.
# Coating of ELISA assay plates was initiated by addition of 50 μL/well of an in-house Aβ(1-42) specific antibody at (3 μg/mL) in 0.1 M NaHCO3 (pH 9.0) into black 384-well Maxisorp® plates (Nunc) and incubated overnight at 4° C. […] Cell toxicity was also measured in the corresponding remaining cells after removal of the conditioned media for the Aβ(1-42) assay by a colorimetric cell proliferation assay (CellTiter 96®AQueous One Solution Cell Proliferation Assay, Promega) according to the manufacturer's instructions. […]
smiles,measurement,value
"Cc1cn(-c2ccc3n(c2=O)CCN(CC2CC(c4ccc(Cl)c(C(F)(F)F)c4)=NO2)C3=O)cn1 (stereo not shown) [Example 32, 2-({3-[-chloro-3-(trifluoromethyl)phenyl]-4,5-dihydro-1,2-oxazol-5-yl}methyl)-7-(4-methyl-1H-imidazol-1-yl)-3,4-dihydro-2H-pyrido[1,2-a]pyrazine-1,6-dione]",pIC50,6.37

# Source: patent publication US8916564B2, “Substituted pyrido[1,2-a]pyrazines for the treatment of neurodegenerative and neurological disorders” (priority 2012, dated 2014)
